Measurements reported in US20110224079A1, “SPIROHETEROCYCLIC N-OXYAMIDES AS PESTICIDES” (SYNGENTA CROP PROTECTION LLC, priority 2008, published 2011).

Legend:
[1] = test system: Thrips tabaci (onion thrips); test: Example B3: activity against Thrips tabaci, sprayed sunflower leaf discs (feeding/residual contact, preventive); assay type: in vivo; conditions: foliar, 144 h, mixed population, 6 days
Description: Activity Against Thrips tabaci (Onion Thrips)
(Mixed Population, Feeding/Residual Contact Activity, Preventive)

[2] = test system: Plutella xylostella (diamond back moth); test: Example B5: activity against Plutella xylostella, artificial diet in microtiter plate (larvicide, preventive); assay type: in vivo; conditions: 120 h, L2 larvae, 5 days, read-out: activity (larval mortality, antifeedant, growth regulation)
Method: Activity Against Plutella xylostella (Diamond Back Moth)
(Larvicide, Feeding/Residual Contact Activity, Preventive)
24-well microtiter plate (MTP) with artificial diet is treated with test solutions by pipetting. After drying, the MTP's are infested with larvae (L2)(10-15 per well). After an incubation period of 5 days, samples are checked for larval mortality, antifeedant and growth regulation.

[3] = test system: Frankliniella occidentalis (western flower thrips); test: Example B6: activity against Frankliniella occidentalis, bean leaf discs or bean plants; assay type: in vivo; conditions: foliar, 6 days (leaf discs) or 14 days (plants) after infestation, read-out: activity (reduction of treated population)
Method: Activity Against Frankliniella occidentalis (Western Flower Thrips)
Bean leaf discs on agar in petri dishes or bean plants in a spray chamber are treated with diluted test solutions. After drying leaf discs are cut and placed in plastic cups on the surface of an agar layer and infested with mixed population. 6 days (leaf discs) or 14 days (plants) after the infestation, samples are checked for reduction of treated population and compared to the non treated population.

[4] = test system: Bemisia tabaci (tobacco white fly); test: Example B7: activity against Bemisia tabaci, sprayed bean plants (larvicide, contact/feeding); assay type: in vivo; conditions: 504 h, bean plants with N-2 nymphs sprayed, three weeks, read-out: activity (efficacy, number of emerged adults)
Outline: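 After a 4-day egg-laying period and 7 further days, bean plants bearing hatched N-2 nymphs were sprayed with test solutions (2 replicates). Emerged adults were counted three weeks later; efficacy was derived by comparison with untreated samples.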

[5] = test system: Aphis Craccivora (cowpea aphid); test: Example B9: activity against Aphis craccivora, sprayed pea seedlings (contact/feeding); assay type: in vivo; conditions: 144 h, infested pea seedlings sprayed, 6 days
Description: (§1) Activity Against Aphis Craccivora (Cowpea Aphid)
(Mixed Population, Contact/Feeding)
6 days after treatment, samples are checked for mortality.

[6] = test system: Aphis Craccivora (cowpea aphid); test: Example B10: activity against Aphis craccivora, pea seedling roots in test solution (systemic/feeding); assay type: in vivo; conditions: 144 h, roots of infested pea seedlings in test solution, 6 days
Description: as §1
(Mixed Population, Systemic/Feeding)

[7] = test system: Aphis Craccivora (cowpea aphid); test: Example B11: translaminar activity against Aphis craccivora on French bean leaves; assay type: in vivo; conditions: 120 h, upper leaf side painted, aphids on lower side, 5 days
Method: Translaminar Activity Against Aphis Craccivora (Cowpea Aphid)
French bean leaves (Phaseolus vulgaris) are infested with about 20 mixed age individuals on the lower leaf side using clip cages. 1 day after the infestation, the upper side of the leaves is treated with the test solution by painting. 5 days later, samples are checked for mortality.

[8] = test system: Aonidiella Aurantii (red scale); test: Example B12: activity against Aonidiella aurantii, dipped potato tubers; assay type: in vivo; conditions: 6-8 weeks after application, read-out: activity (number of crawlers of the next generation)
Description: Activity Against Aonidiella Aurantii (Red Scale)
Treatment of potato tubers by dipping the in the test solution. One day later, tubers are infested with about 50 crawlers. 6-8 weeks after application samples are checked for the number of crawlers of the next generation (compared to the non treated samples).

[9] = test system: Myzus persicae (green peach aphid); test: Example B17: activity against Myzus persicae on sprayed pepper plants (feeding/residual contact); assay type: in vivo; conditions: 144 h, infested pepper plants sprayed, 6 days
[10] = test system: Myzus persicae (green peach aphid); test: Example B13: drench activity against Myzus persicae, pea seedlings in field soil; conditions: 168 h, read-out: drench activity (mortality)
[11] = test system: Nilaparvata lugens (brown rice planthopper); test: Example B8: activity against Nilaparvata lugens, sprayed rice seedlings (larvicide, feeding/contact); conditions: in Oryza sativa, read-out: activity (mortality, growth regulation, effects on F1 generation)
[12] = test system: Myzus persicae (green peach aphid); test: Example B2: activity against Myzus persicae, pea seedling roots in test solution (systemic/feeding, curative); conditions: 144 h, read-out: activity (mortality)
[13] = test system: Myzus persicae (green peach aphid); test: Example B1: activity against Myzus persicae, sprayed sunflower leaf discs (feeding/residual contact, preventive); conditions: foliar, 144 h, read-out: activity (mortality)
[14] = test system: Myzus persicae (green peach aphid); test: Example B15: drench activity (death rate, persistence) against Myzus persicae on pepper plants in field soil, comparison with A18; assay type: in vivo; conditions: for Mortality (%) xx days after application (drench, systemic action, persistence): 12.5 ppm drench, pepper plants in field soil, evaluation 7 days after infestation; for insecticidal action on Myzus persicae compared with state-of-the-art compound A18 (in words): drench application on pepper plants, summary of Table B15
Method: (§2) Comparison of the Insecticidal Activity and Crop Compatibility of Compounds According to the Invention with a Compound from the State of the Art (Compound No. A18 Described on Page 97 of WO09/049,851)
(§3) (Mixed Population, Drench Application in Field Soil, Persistence, Plant Damage Evaluation)
(§4) Samples are assessed 7 days after infestation on mortality. Treated plants are re-infested 7, 14, 21 and 28 days after application. Evaluation is always done 7 days after infestation. Plants are also checked for damage (phytotoxicity), visual assessment being made using a 0-100% rating scale (100%=total damage to plant; 0%=no damage to plant).

[15] = test system: pepper plants; conditions: in vivo
Method: as §2, §3, §4

[16] = test system: Tetranychus urticae (two-spotted spider mite); test: Example B4: activity against Tetranychus urticae, sprayed bean leaf discs (feeding/residual contact, preventive); conditions: foliar, 192 h, read-out: activity (egg, larval and adult mortality)
[17] = test system: Aphis Craccivora (cowpea aphid); test: Example B16: activity against Aphis craccivora on broad bean plants, adjuvant effect, curative (EC050 spray); assay type: in vivo; conditions: 3 ppm, adjuvant (if any) 0.1% (v/v), 7 days after treatment
Method: One day after infestation, plants are treated with diluted test solutions of the compound formulated as EC050 in a spray chamber (4 replicates). Optionally, an adjuvant is added with 0.1% (v/v) to the spray solution. 7 days after treatment samples are checked for mortality. Efficacy was calculated with the aid of Abbott's formula.

[18] = infestation 0 days after application
[19] = re-infestation 7 days after application
[20] = re-infestation 14 days after application
[21] = re-infestation 21 days after application
[22] = re-infestation 28 days after application

COCON1C(=O)C(c2c(C)cc(C)cc2C)=C(O)C12CCN(OC)CC2 [P2.6, 4-hydroxy-8-methoxy-1-methoxymethoxy-3-(2,4,6-trimethyl-phenyl)-1,8-diaza-spiro[4.5]dec-3-en-2-one]
mortality at 400 ppm [1]: > 80% | mortality at 400 ppm [2]: > 80% | pest or weed control at 400 ppm [3]: > 80% | pest or weed control at 200 ppm [4]: > 80% | mortality at 400 ppm [5]: > 80% | mortality at 400 ppm [6]: > 80% | mortality at 400 ppm [7]: > 80% | pest or weed control at 200 ppm [8]: > 80% | mortality at 200 ppm [9]: ≥ 80% | mortality at 25 ppm [10]: > 80% | mortality at 400 ppm [11]: > 80% | mortality at 400 ppm [12]: > 80% | mortality at 400 ppm [13]: > 80%

CCOC(=O)OC1=C(c2c(C)cc(C)cc2C)C(=O)N(O)C12CCN(OC)CC2 [P1.11, carbonic acid ethyl ester 1-hydroxy-8-methoxy-2-oxo-3-(2,4,6-trimethyl-phenyl)-1,8-diaza-spiro[4.5]dec-3-en-4-yl ester]
mortality at 400 ppm [1]: > 80% | mortality at 400 ppm [2]: > 80% | pest or weed control at 200 ppm [4]: > 80% | mortality at 400 ppm [6]: > 80% | pest or weed control at 200 ppm [8]: > 80% | Mortality (%) xx days after application (drench, systemic action, persistence) [14, 18]: 97% | Mortality (%) xx days after application (drench, systemic action, persistence) [14, 19]: 95% | Mortality (%) xx days after application (drench, systemic action, persistence) [14, 20]: 95% | Mortality (%) xx days after application (drench, systemic action, persistence) [14, 21]: 100% | Mortality (%) xx days after application (drench, systemic action, persistence) [14, 22]: 100% | insecticidal action on Myzus persicae compared with state-of-the-art compound A18 (in words) [14]: very similar to the action of the compound of the state of the art | plant damage on pepper plants / plant compatibility (in words) [15]: no plant damage at all | mortality at 200 ppm [9]: ≥ 80% | mortality at 25 ppm [10]: > 80% | mortality at 400 ppm [11]: > 80% | mortality at 400 ppm [12]: > 80% | mortality at 400 ppm [13]: > 80% | mortality at 400 ppm [16]: > 80%

CCOC(=O)OC1=C(c2c(C)cc(C)cc2C)C(=O)NC12CCN(OC)CC2 [A18, reference compound]
Mortality (%) xx days after application (drench, systemic action, persistence) [14, 18]: 100% | Mortality (%) xx days after application (drench, systemic action, persistence) [14, 19]: 100% | Mortality (%) xx days after application (drench, systemic action, persistence) [14, 20]: 98% | Mortality (%) xx days after application (drench, systemic action, persistence) [14, 21]: 95% | Mortality (%) xx days after application (drench, systemic action, persistence) [14, 22]: 95% | plant damage on pepper plants / plant compatibility (in words) [15]: damages these to an untolerable high extend

CCOC(=O)OC1=C(c2c(C)cc(C)cc2C)C(=O)N(OCOC)C12CCN(OC)CC2 [P1.7, carbonic acid ethyl ester 8-methoxy-1-methoxymethoxy-2-oxo-3-(2,4,6-trimethyl-phenyl)-1,8-diaza-spiro[4.5]dec-3-en-4-yl ester]
mortality at 400 ppm [2]: > 80% | pest or weed control at 200 ppm [4]: > 80% | mortality at 400 ppm [7]: > 80% | pest or weed control at 200 ppm [8]: > 80% | Mortality (%) xx days after application (drench, systemic action, persistence) [14, 18]: 99% | Mortality (%) xx days after application (drench, systemic action, persistence) [14, 19]: 100% | Mortality (%) xx days after application (drench, systemic action, persistence) [14, 20]: 98% | Mortality (%) xx days after application (drench, systemic action, persistence) [14, 21]: 98% | Mortality (%) xx days after application (drench, systemic action, persistence) [14, 22]: 97% | insecticidal action on Myzus persicae compared with state-of-the-art compound A18 (in words) [14]: very similar to the action of the compound of the state of the art | plant damage on pepper plants / plant compatibility (in words) [15]: no plant damage at all | mortality at 200 ppm [9]: ≥ 80% | mortality at 25 ppm [10]: > 80% | mortality at 400 ppm [11]: > 80% | mortality at 400 ppm [12]: > 80% | mortality at 400 ppm [13]: > 80%

CCOC(=O)OC1=C(c2c(C)cc(C)cc2C)C(=O)N(OCC)C12CCN(OC)CC2 [P1.15]
pest or weed control at 400 ppm [3]: > 80% | pest or weed control at 200 ppm [4]: > 80% | mortality at 400 ppm [5]: > 80% | mortality at 400 ppm [6]: > 80% | mortality at 400 ppm [7]: > 80% | pest or weed control at 200 ppm [8]: > 80% | Abbott's efficacy (%) against Aphis craccivora ([17]; Table B16a): 3% | Abbott's efficacy (%) against Aphis craccivora ([17]; Table B16b): 11% | mortality at 200 ppm [9]: ≥ 80% | mortality at 25 ppm [10]: > 80% | mortality at 400 ppm [11]: > 80% | mortality at 400 ppm [12]: > 80% | mortality at 400 ppm [13]: > 80% | mortality at 400 ppm [16]: > 80%

CCOC(=O)OC1=C(c2c(C)cc(C)cc2C)C(=O)N(OC2CCCO2)C12CCN(OC)CC2 (centres unmarked) [P1.9, Carbonic acid ethyl ester 8-methoxy-2-oxo-1-(tetrahydro-furan-2-yloxy)-3-(2,4,6-trimethyl-phenyl)-1,8-diaza-spiro[4.5]dec-3-en-4-yl ester]
mortality at 400 ppm [1]: > 80% | mortality at 400 ppm [2]: > 80% | pest or weed control at 400 ppm [3]: > 80% | pest or weed control at 200 ppm [4]: > 80% | mortality at 400 ppm [6]: > 80% | mortality at 400 ppm [7]: > 80% | pest or weed control at 200 ppm [8]: > 80% | mortality at 200 ppm [9]: ≥ 80% | mortality at 25 ppm [10]: > 80% | mortality at 400 ppm [11]: > 80% | mortality at 400 ppm [12]: > 80% | mortality at 400 ppm [13]: > 80% | mortality at 400 ppm [16]: > 80%

CCOC(=O)OC1=C(c2c(C)cc(C)cc2C)C(=O)N(OC)C12CCN(OC)CC2 [P1.8]
mortality at 400 ppm [1]: > 80% | mortality at 400 ppm [2]: > 80% | pest or weed control at 200 ppm [4]: > 80% | mortality at 400 ppm [5]: > 80% | mortality at 400 ppm [6]: > 80% | mortality at 400 ppm [7]: > 80% | pest or weed control at 200 ppm [8]: > 80% | mortality at 200 ppm [9]: ≥ 80% | mortality at 25 ppm [10]: > 80% | mortality at 400 ppm [11]: > 80% | mortality at 400 ppm [12]: > 80% | mortality at 400 ppm [13]: > 80% | mortality at 400 ppm [16]: > 80%

CCOC(=O)OC1=C(c2c(C)cc(Br)cc2C)C(=O)N(OCOC)C12CCN(OC)CC2 [P1.19]
mortality at 400 ppm [2]: > 80% | mortality at 400 ppm [7]: > 80% | pest or weed control at 200 ppm [8]: > 80% | mortality at 200 ppm [9]: ≥ 80% | mortality at 25 ppm [10]: > 80% | mortality at 400 ppm [11]: > 80% | mortality at 400 ppm [12]: > 80% | mortality at 400 ppm [13]: > 80%
